Results reported in patent US20210038668A1, “TRADITIONAL CHINESE MEDICINE COMPOSITION FOR PREVENTING AND/OR TREATING ISCHEMIC REPERFUSION INJURY” (TASLY PHARMACEUTICAL GROUP CO., LTD., priority 2018, published 2021).

How the values were obtained:
mitochondrial complex IV = experiment: Mitochondrial complex IV activity in brain tissue; type: in vivo, C57BL/6 mice; conditions: brain tissue 24 hours after administration; tPA 10 mg/kg alone or + T541 20 mg/kg or ingredients at Table 7 doses
Text: To compare the therapeutical effect on reperfusion injury caused by tPA thrombolysis between the traditional Chinese medicinal composition of the present invention and each ingredient (total saponins of Astragalus, the experiment was divided into the following group (tPA is combined with T541, individual ingredient thereof and compatibility of any two ingredients) specifically as follows: tPA+total saponins of Astragalus (tPA+HQ), tPA+ salvianolic acids (tPA+DS), tPA+Panax notoginseng saponins (tPA+SQ), tPA+ total saponins of Astragalus+salvianolic acids (tPA+HQ+DS), tPA+ total saponins of Astragalus+Panax notoginseng saponins (tPA+HQ+SQ), tPA+ salvianolic acids+Panax notoginseng saponins (tPA+DS+SQ) and tPA+T541. Normal saline served as an isovolumetric control. The usage number in each group is 6.
ELISA adsorption kit was used to measure the change on the content of MDA, 8-hydroxyl-2′-deoxyguanosine (8-OHdG), adenosine triphosphate (ATP), adenosine diphosphate (ADP) and adenosine monophosphate (AMP) in the penumbra field of brain tissue cortex of the mode, and the change on the activity of mitochondrial complexes I, II, IV and V. 6 samples were used to repeat the independent experiment for at least three times for each group of data.

[1] = system: thrombus of arteria carotis communis; experiment: Observation of carotid thrombus size, FeCl3 model; type: in vivo, C57BL/6 mice
Protocol: Mice were anesthetized via intraperitoneal injection by pentobarbital sodium (2%, 45 mg/kg), and neck kin was sterilized. A median incision was cut on the neck, exposed and isolated to obtain arteria carotis communis; a waterproof cushion was used to isolate arteria carotis communis with the length of about 2.5-3 mm from surrounding tissues. The isolated arteria carotis communis was wrapped by a filter paper soaked by 10% FeCl3 for about 1 mm (width), and the filter paper was removed 3 minutes later, the outside of blood vessel was washed by 0.9% normal saline. The waterproof cushion was removed. The neck incision was sutured. The start of Fe3+ stimulation was defined as the beginning of ischemia, and those mice meeting the following conditions were selected into the group: the blood vessel was blocked at the maximum diameter of the neck thrombus 10 minutes after ischemia; the blood flow of the carotid artery distal end was less than 20% of the base value 15 minutes after ischemia; and the thrombus was stable 4.5 hours after ischemia (before reperfusion); the carotid artery vessel at 60% and more of the diameter was blocked by the maximum diameter of the thrombus.
Mice were treated by medicaments or normal saline according to random grouping results 4.5 hours after ischemia. Mice femoral vein was intubated, and left femoral vein was injected tPA (tissue plasminogen activator) or normal saline; right femoral vein was injected the traditional Chinese medicinal composition of the present invention or normal saline; 10% of the total dose was injected via an injection pump, and the rest 90% were continuously injected intravenously for 1 hour with the rate of 0.1 ml/h. Three proportion groups were selected to the traditional Chinese medicinal composition of the present invention respectively below:
Carotid thrombus of mice was dynamically observed by an upright microscope. Anesthetized mice were placed on a board in supine position, a median incision was cut on the neck; arteria carotis communis was exposed and separated; femoral vein was given Acridine red fluorescence labeling of blood platelet to observe the change of carotid thrombus of mice before ischemia (namely, a base value), 10 minutes after ischemia, 4.5 hours after ischemia (namely, before reperfusion), 1 hour after reperfusion, 2 hours after reperfusion and 24 hours after reperfusion. There was no thrombus before ischemia (namely, a base value); the blood vessel was blocked by thrombus at a maximum diameter 10 minutes after ischemia; blood flow at the distal end of carotid artery decreased to 20% of the base value below 15 minutes after ischemia; the thrombus was stable 4.5 hours after ischemia (namely, before reperfusion). The success criterion is that the size of thrombus blocks 60% of the vascular area of carotid artery and above; the success rate of entry is up to 90.9%. Excepting for the sham-operated group and each basal group, the rest groups were randomly allocated after building models successfully.

Bax = experiment: Western blotting of Bax, endothelial cells after hypoxia/reoxygenation; type: cell-based; conditions: rat brain endothelial cells, hypoxia 4.5 h/reoxygenation 3 h; tPA 20 mcg/ml alone (model group); T541 400 mcg/ml + tPA 20 mcg/ml
Text: Establishment of rat brain endothelial cell H/R model: rat brain endothelial cells were purchased from ATCC, and then subcultured to 5-6 generations in normal conditions for further experiment. […]

[2] = before administration, groups: tPA 10 mg/kg alone, T541 20 mg/kg, T141 12 mg/kg, T582 15 mg/kg each + tPA 10 mg/kg
[3] = iv, tPA 10 mg/kg alone, T541 20 mg/kg, T141 12 mg/kg, T582 15 mg/kg each + tPA 10 mg/kg

Substance: tPA: tissue-type plasminogen activator (tPA) for thrombolysis
- Complex IV activity (mitochondrial complex IV): 0.267 ± 0.016
- Size of thrombus, 10 minutes after FeCl3 simulation [1, 2]: 25.13 ± 1.34
- Size of thrombus, Before FeCl3 simulation [1, 2]: 0 ± 0
- thrombolysis effect (in words) ([1]; given alone: T541 20 mg/kg, tPA 10 mg/kg (24 hours later)): size of thrombus decreases obviously
- Size of thrombus, 5.5 hours after FeCl3 simulation (1 hour after administration) [1, 3]: 22.14 ± 1.36
- Size of thrombus, 6.5 hours after FeCl3 simulation (2 hours after administration) [1, 3]: 16.64 ± 4.10
- Size of thrombus, 28.5 hours after FeCl3 simulation (24 hours after administration) [1, 3]: 11.15 ± 2.61
- Size of thrombus, 4.5 hours after FeCl3 simulation ([1]; start of administration, groups: tPA 10 mg/kg alone, T541 20 mg/kg, T141 12 mg/kg, T582 15 mg/kg each + tPA 10 mg/kg): 23.47 ± 1.78
- Bax (Bax): 2.44 ± 0.51
- Bax/Bcl-2 (Bax): 4.57 ± 0.75
